Reference: patent US20120004172A1, “SCREENING METHOD OF ANTI-LUNG OR ESOPHAGEAL CANCER COMPOUNDS” (Oncotherapy Science, Inc., priority 2008, published 2012)

Columns and labels:
CDCA5 = system: CDCA5
Experimental: (§1) [FIG. 5] […] B, Non-tagged CDCA5 expressing vector was transfected to HeLa cells. After starving the cells in FBS free for 20 hours, EGF stimulations were performed at 5, 10, 20, 30 minutes. 10 uM U0126 treatment was performed for 1 hour.
(§2) Cultured cervical squamous cell carcinoma HeLa cells were cultured in FCS free medium for 20 hours. Then, the cells were stimulated by […] EGF for 20 min with or without 10 micro-M MEK inhibitor U0126 (Promega).

ERK = conditions: EGF stimulation
Experimental: as §1
[FIG. 6A] […] A, ERK1 or ERK2 expressing vector was co-transfected with non-tagged CDCA5 expressing vector to HeLa cells. After starvation of HeLa cells in FBS free for 20 hours, the cells were stimulated with 50 ng/ml EGF for 5, 10, 20, 30 minutes, respectively. 10 uM U0126 treatment was performed for 1 hour before EGF stimulation.
as §2

[1] = cited from earlier work
[2] = system: LC319 lung cancer cell line; experiment: Growth assay (MTT) after transfection of CDCA5 mutant vectors, LC319; assay type: cell-based, human; conditions: MTT at 6th day after transfection; compared with mock and wild type vectors
Experimental: (§3) [FIG. 7A] The function of ERK-dependent phosphorylation sites in cancer cells. […] Growth assay was performed using A549 and LC319 lung cancer cell lines transfected with mock, wild type and CDCA5 alanine substitute vectors. MTT assay was performed at 6th day after transfection.
(§4) [FIG. 7B] The function of ERK-dependent phosphorylation sites in cancer cells. B, Growth assay was performed using LC319 and A549 lung cancer cell line which was transfected with mock, wild type and CDCA5 phospho-mimicking mutant vectors. MTT assay was performed at 6th day after transfection.
(§5) Cell growth may be measured by methods known in the art, e.g., using the MTT cell proliferation assay; briefly, cell-counting kit-8 solution (DOJINDO) is added to each dish at a concentration of 1/10 volume, and the plates are incubated at 37 degree Centigrade (C) for additional 2 hours. Absorbance is then measured at 450 nm as a reference, with a Microplate Reader 550 (BIO-RAD, Hercules, Calif.).

[3] = system: A549 lung cancer cell line; experiment: Growth assay (MTT) after transfection of CDCA5 mutant vectors, A549; assay type: cell-based, human; conditions: MTT at 6th day after transfection; compared with mock and wild type vectors
Experimental: as §3, §4, §5

Compound: N#CC(=C(/N)Sc1ccccc1N)/C(C#N)=C(\N)Sc1ccccc1N [U0126]
- upper shift of endogenous CDCA5 band (CDCA5; serum-starved HeLa cells, EGF stimulation, 10 micro-M U0126): completely inhibited the upper shift of CDCA5 band
- signal of spot no. 2 of myc-tagged CDCA5 increased by EGF stimulation (CDCA5; transfected HeLa cells, 2D-Western-blotting with anti-myc antibody, U0126 treatment): also reduced
- EGF-induced shifted spots (no. 3 and 4) with more acidic pI of myc-tagged CDCA5 (CDCA5; transfected HeLa cells, 2D-Western-blotting with anti-myc antibody, pre-incubation with U0126): significantly reduced
- activation of exogenous ERK1 or 2 as well as endogenous ERK (ERK; HeLa cells transfected with ERK1 or ERK2 and CDCA5 vectors, 10 uM U0126 for 1 hour before EGF): but not in U0126 MEK inhibitor treatment
- levels of ERK phosphorylation (ERK; serum-starved HeLa cells, 10 micro-M U0126): reduced the levels of ERK phosphorylation

Compound: C#Cc1cccc(Nc2ncnc3cc(OCCOC)c(OCCOC)cc23)c1 [erlotinib]
- median survival ([1]; NSCLC, placebo 4.7 months (NPL 10)): 6.7 months

Compound: COc1cc2ncnc(Nc3ccc(F)c(Cl)c3)c2cc1OCCCN1CCOCC1 [gefitinib]
- response rate and symptom control ([1]; NSCLC (NPL 11)): superior response rate and symptom control

Compound: Ser209 alanine substitute: CDCA5 mutant, alanine at position 209 (SEQ ID NO: 7), expressed from transfected vector; dominant negative
- growth of LC319 cells (MTT assay) [2]: inhibited the growth
- growth of A549 cells (MTT assay) [3]: inhibited the growth
